The values below come from patent US20240292836A1, “AGENTS FOR REPELLING, KNOCKING DOWN, AND/OR KILLING BLOOD-SUCKING ARTHROPODS AND USES THEREOF” (The United States of America, as represented by the …, priority 2023, published 2024).

“And” between values parts separate entries of the source, which are not always exact repeats. Identical values can stand only once. “Also recorded” adds a separate entry of the source.

The subject of test [1] is female Aedes aegypti adults. The test is described as follows: Arm-in-cage cloth-patch in vivo assay (topical repellency). Particulars: for Minimum Effective Dose (MED): Mean ± SEM, lowest dosage with five or fewer bites through repellent-treated cloth in 1-minute exposure, at least three volunteers; for topical repellency (in words): initial screening dose of 0.187 mg/cm^2. The source says: Arm-in-Cage Test Cloth-Patch in vivo Assay Pyrethroid-susceptible yellow fever mosquitoes Ae. aegypti (Orlando strain) were reared in the United States Department of Agriculture Mosquito and Fly Research Unit in Gainesville, FL under standard protocols. Three to seven-day-old, starved female mosquitoes were collected using a “draw box” (Posey, K. and Schreck, C. E, 1981, “An airflow apparatus for selecting female mosquitoes for use in repellent and attraction studies” Mosquito News 41: 566-568; US. Department of Agriculture, 1977, Repellent activity of compounds submitted by Walter Reed Army Institute of Research. Part 1. Protection time and minimum effective dosage against Aedes aegypti mosquitoes. Tech. Bull. No. 1549) and were placed in cages at an approximate density 200 mosquitoes/cage. Repellency was determined according to a standard protocol (Bernier, U. R., et al, 2022. “Evaluation and application of repellent-treated uniform/clothing and textiles against vector mosquitoes,” In Advances in Arthropod Repellents (pp. 69-94). Academic Press) and reported as the minimum effective dosage (MED). […] A nylon leg stocking was placed over the arm to prevent direct contact of the repellent-treated cloth patch with the skin. […]. Cloth was treated by placing a rolled bandage (50 cm^2) into each vial containing 1 mL of solution and allowing the patch to absorb the solution completely. The cloth was taped over a 4 by 9-cm opening cut into a vinyl plastic sheet that was draped around the volunteers' arms and taped in place. The cloth was air-dried approximately 15 min before conducting each test. The work reported here is an average of the MED for at least three volunteers. Each volunteer covered his or her arm with a nylon stocking to avoid contact between the skin and the treated cloth and wore a rubber glove to prevent mosquito bites on the hand.
. The minimum effective dose (MED) was determined for each repellent and subject, defined as the lowest concentration that prevents biting). MEDs from each subject were pooled and reported as the average among all replicates/subjects with SEM. A minimum of 3 replicates were performed on at least three human subjects. Written informed consent was obtained for all human subjects used in this study in accordance with IRB protocol #20193320, as approved by the WCG™ IRB.
Statistical Analyses: Student's T-test was used to compare the means between tested compound and DEET and Icaridin in the arm-in-cage in vivo assay and neurophysiological study.

The subject of test [2] is female Aedes aegypti adults. The test is described as follows: High-throughput in vitro screening assay, spatial repellency. It counts as in vivo. The following applies: for RD50 (30 min), half-repellent dose / RD50 (60 min), half-repellent dose: dose per filter paper surface area, 95% CI; for spatial repellency (in words): highest-tested dose of 100 μg/cm^2; for 30-minute RD50 compared with that of DEET: 30 minutes, α = 0.05. From the text:
A high-throughput screening method for evaluating spatial repellency and vapor toxicity, described by Jiang S., et al. (2019, “High-Throughput Screening Method for Evaluating Spatial Repellency and Vapour Toxicity to Mosquitoes,” Med. Vet. Entomol. 33: 388-396), was used for this study. As shown in FIG. 2 of Jiang S., et al., assay tubes were constructed by covering 12.5 cm glass tubes on one side with netting secured by a rubber band. The tubes were used in horizontal orientation. Adult mosquitos 2-7 days old were anesthetized on ice for approximately 5 minutes and 16 females were transferred to each tube. The other end of the tube was then closed with netting and a rubber band.
The conical ends of 50 mL centrifuge tubes (Eppendorf, Enfield, Connecticut, USA) were cut at approximately the 10 mL mark to create the end caps for the assay tubes. […] For repellency tests, filter papers for the “untreated” side of the assay tube received pure acetone, whereas filter papers for the “treated” side received acetone solution containing a dissolved compound of interest. For knockdown tests, both filter papers were treated with acetone solution containing one or more compounds of interest. Acetone on both filter papers served as negative controls.
For repellency assays, filter papers were given 10 minutes of evaporation time before being placed into the end caps with forceps (Jiang S., et al. 2019, Supra). For knockdown assays, filter papers were given 5 minutes of evaporation time before being placed into the end caps. […] Assay tubes were capped such that the cap securely overlapped the glass but approximately 5 mm of space was left between the netting and the filter paper so that the mosquitos could not contact the filter paper.
Assay tubes were placed on a white polystyrene platform with wooden sticks glued flatly across it to prevent the tubes from rolling. A straight black line was drawn down the center of the platform and assay tubes were centered on the line at the beginning of the tests. In repellency assays, data were collected at 15, 30, and 60 minutes after the end caps were placed on the assay tubes. Assay tubes were not disturbed for the entire 60 minutes. At each time point, the number of mosquitos that remained on the treated side was visually assessed and recorded. The treated side was alternated with each set of tests. For repellency tests, DEET at a dose of 100 μg/cm^2 served as the positive control.
For the high-throughput in vitro screening assays, analyses were conducted with R version 4.2.2 statistical software (R Core Team, 2022, “R: a language and environment for statistical computing. R foundation for statistical computing,” Vienna, Austria). Concentrations were calculated in terms of filter paper surface area (μg/cm^2) for repellency assays and in terms of assay tube volume (μg/cm^3) for knockdown assays.
Half-repellent (RD50), half-knockdown (KD50), and half-lethal (LD50) doses were calculated from dose-response curves (DRCs) obtained by four-parameter log-logistic equation models generated using the drc package (Dose Response Curve Analyses Software; Ritz C. et al., 2015, “Dose-response analysis using R,” PLOS ONE 10: e0146021). For repellency test analysis, the upper and lower asymptotes for the proportion of mosquitos remaining on the treated side were fixed at 0.5 and 0, respectively. For KD and mortality test analysis, the upper and lower asymptotes for the proportion of mosquitos knocked down or killed were fixed at 1.0 and 0, respectively. To determine whether RD50, KD50, or LD50 values differed across compounds at each timepoint, a joint model assuming different values for each compound and a null model that assumed a single value for all compounds were compared with a likelihood ratio test.

As for `CCCCOC(=O)c1ccc(O)cc1` [nB4HB, n-butyl 4-hydroxybenzoate], in test [1], the “Minimum Effective Dose (MED)” value is listed as over 0.187 mg/cm^2 and the “topical repellency (in words)” value is “did not show any topical repellencies”. In test [2], the “RD50 (30 min), half-repellent dose” value was over 100 μg/cm^2; the “RD50 (60 min), half-repellent dose” value is over 100 μg/cm^2; the “spatial repellency (in words)” value was “did not show spatial repellencies”.

As to `CCOC(=O)c1cccc(N)c1` [E3AB, ethyl 3-aminobenzoate], the “Minimum Effective Dose (MED)” value in test [1] turned out to be 0.039 mg/cm^2. Besides, in test [2], the “RD50 (30 min), half-repellent dose” value is over 100 μg/cm^2; the “RD50 (60 min), half-repellent dose” value was over 100 μg/cm^2; the “spatial repellency (in words)” value is “did not show any spatial repellencies”.

In the case of `COC(=O)c1ccccc1C` [M2MB, methyl 2-methylbenzoate], in test [1], the “Minimum Effective Dose (MED)” value was found to be 0.250 mg/cm^2 and the “topical repellency (in words)” value was “demonstrated repellency at doses lower than 0.187 mg/cm^2 on at least one test subject”. Also, in test [2], the “RD50 (30 min), half-repellent dose” value is listed as over 100 μg/cm^2; the “RD50 (60 min), half-repellent dose” value is reported as over 100 μg/cm^2; the “spatial repellency (in words)” value is “did not show spatial repellencies”.

Take `CCOC(=O)c1ccc(OC)cc1` [E4MOB, ethyl 4-methoxybenzoate]: in test [1], the “Minimum Effective Dose (MED)” value is reported as over 0.187 mg/cm^2 and the “topical repellency (in words)” value is on record as “did not show any topical repellencies; also recorded: did not exhibit topical repellency”. Also, in test [2], the “30-minute RD50 compared with that of DEET” value is given as “significantly lower than that of DEET”.

Regarding `CCCOC(=O)c1ccc(O)cc1` [nPr4HB, n-propyl 4-hydroxylbenzoate], in test [1], the “Minimum Effective Dose (MED)” value was over 0.187 mg/cm^2 and the “topical repellency (in words)” value is “did not show any topical repellencies”. Besides, in test [2], the “RD50 (30 min), half-repellent dose” value is given as over 100 μg/cm^2; the “RD50 (60 min), half-repellent dose” value is over 100 μg/cm^2; the “spatial repellency (in words)” value is “did not show spatial repellencies”.

As for `COC(=O)c1ccccc1` [MB, Methyl benzoate], in test [1], the “Minimum Effective Dose (MED)” value is over 0.187 mg/cm^2 and the “topical repellency (in words)” value is on record as “did not show any topical repellencies”. Also, in test [2], the “RD50 (30 min), half-repellent dose” value was over 100 μg/cm^2; the “RD50 (60 min), half-repellent dose” value is over 100 μg/cm^2; the “spatial repellency (in words)” value is given as “did not show spatial repellencies”.

For the molecule `C=CCOC(=O)c1ccccc1N` [AA, allyl anthranilate], the “Minimum Effective Dose (MED)” value in test [1] came to 0.039 mg/cm^2. The “30-minute RD50 compared with that of DEET” value in test [2] is “significantly lower than that of DEET”.

As to `COC(=O)c1ccccc1N` [MA, methyl anthranilate], in test [1], the “Minimum Effective Dose (MED)” value is given as 0.027 mg/cm^2. In test [2], the “RD50 (30 min), half-repellent dose” value turned out to be 11.84 μg/cm^2 and the “30-minute RD50 compared with that of DEET” value is “significantly lower than that of DEET”.

Regarding `CCOC(=O)c1ccccc1` [EB, ethyl benzoate], in test [1], the “Minimum Effective Dose (MED)” value is over 0.187 mg/cm^2 and the “topical repellency (in words)” value was “did not show any topical repellencies”. In test [2], the “RD50 (30 min), half-repellent dose” value is on record as over 100 μg/cm^2; the “RD50 (60 min), half-repellent dose” value is on record as over 100 μg/cm^2; the “spatial repellency (in words)” value is “did not show spatial repellencies”.

On to `CCC(C)OC(=O)N1CCCCC1CCO` (stereo not shown) [Icaridin, 1-(1-Methylpropoxycarbonyl)-2-(2-hydroxyethyl)piperidine, reference compound], for which, in test [1], the “Minimum Effective Dose (MED)” value is 0.0150±0.004 mg/cm^2 and 0.0150 mg/cm^2.

As for `COC(=O)c1ccc(C)cc1` [M4MB, methyl 4-methylbenzoate], in test [1], the “Minimum Effective Dose (MED)” value was over 0.187 mg/cm^2 and the “topical repellency (in words)” value is “did not show any topical repellencies”. Further, in test [2], the “RD50 (30 min), half-repellent dose” value is recorded as over 100 μg/cm^2; the “RD50 (60 min), half-repellent dose” value is over 100 μg/cm^2; the “spatial repellency (in words)” value was “did not show spatial repellencies”.

As for `CCCCOC(=O)c1ccccc1N` [nBA, n-butyl anthranilate], in test [2], the “RD50 (30 min), half-repellent dose” value is listed as over 100 μg/cm^2 and the “spatial repellency (in words)” value was “did not show any spatial repellencies”.

As for `O=C(OCCc1ccccc1)c1ccccc1` [PhEB, phenethyl benzoate], in test [1], the “Minimum Effective Dose (MED)” value was over 0.187 mg/cm^2 and the “topical repellency (in words)” value is “did not show any topical repellencies”. Besides, in test [2], the “RD50 (30 min), half-repellent dose” value was over 100 μg/cm^2; the “RD50 (60 min), half-repellent dose” value is listed as over 100 μg/cm^2; the “spatial repellency (in words)” value is on record as “did not show spatial repellencies”.

Turning to `CCOC(=O)c1ccccc1NC=O` [EFA, ethyl N-formylanthranilate], the “Minimum Effective Dose (MED)” value in test [1] is 0.0062 mg/cm^2. Further, the “MED, times lower than the initial screening dose” value in test [1] (relative to initial screening dose of 0.187 mg/cm^2) turned out to be 30 times. For the same molecule, in test [2], the “RD50 (30 min), half-repellent dose” value is given as over 100 μg/cm^2; the “RD50 (60 min), half-repellent dose” value is over 100 μg/cm^2; the “spatial repellency (in words)” value was “did not show spatial repellencies”.

Regarding `O=C(Oc1ccccc1)c1ccccc1` [PhB, phenyl benzoate], in test [1], the “Minimum Effective Dose (MED)” value is on record as over 0.187 mg/cm^2 and the “topical repellency (in words)” value was “did not show any topical repellencies”. For the same molecule, in test [2], the “RD50 (30 min), half-repellent dose” value is over 100 μg/cm^2; the “RD50 (60 min), half-repellent dose” value is over 100 μg/cm^2; the “spatial repellency (in words)” value is “did not show spatial repellencies”.

In the case of `O=C(OCc1ccccc1)c1ccccc1` [BB, benzyl benzoate], in test [1], the “Minimum Effective Dose (MED)” value is recorded as over 0.187 mg/cm^2 and the “topical repellency (in words)” value is recorded as “did not show any topical repellencies”. In addition, in test [2], the “RD50 (30 min), half-repellent dose” value was over 100 μg/cm^2; the “RD50 (60 min), half-repellent dose” value is over 100 μg/cm^2; the “spatial repellency (in words)” value was “did not show spatial repellencies”.

On to `CNc1ccccc1C(=O)OC` [MMA, methyl N-methylanthranilate], for which the “30-minute RD50 compared with that of DEET” value in test [2] is recorded as “significantly lower than that of DEET”.

With `CC(C)COC(=O)c1ccccc1N` [iBA, iso-butyl anthranilate], in test [2], the “30-minute RD50 compared with that of DEET” value is reported as “not significantly different from that of DEET”.
